This passage reports inhibition and IC50 results from publication PMC7957565 (Molecules, 2021).

As usually defined, the inhibition is the drop in the measured response relative to a control, in per cent. Broadly, the IC50 is the concentration needed to halve the response being measured. A high value points to weaker potency.

The target in one assay is T1, AChE (from electric eel) (Electrophorus electricus, UniProt O42275).
T1 construct: purchased Sigma-Aldrich
The experiment in a line: biochemical. To be noted: eeAChE; for inhibition at 100 µM: compound at 100 μM, read-out: AChE inhibition rate (%) in 100 μM; for IC50: mean ± spread.

For assay [1], the target named is butyrylcholinesterase (BuChE, from equine serum) (Equus caballus, UniProt P81908). Briefly: biochemical. To be noted: eqBuChE; mean ± spread.

Each structure is given as a SMILES string.

T1 sequence (O42275 24-633): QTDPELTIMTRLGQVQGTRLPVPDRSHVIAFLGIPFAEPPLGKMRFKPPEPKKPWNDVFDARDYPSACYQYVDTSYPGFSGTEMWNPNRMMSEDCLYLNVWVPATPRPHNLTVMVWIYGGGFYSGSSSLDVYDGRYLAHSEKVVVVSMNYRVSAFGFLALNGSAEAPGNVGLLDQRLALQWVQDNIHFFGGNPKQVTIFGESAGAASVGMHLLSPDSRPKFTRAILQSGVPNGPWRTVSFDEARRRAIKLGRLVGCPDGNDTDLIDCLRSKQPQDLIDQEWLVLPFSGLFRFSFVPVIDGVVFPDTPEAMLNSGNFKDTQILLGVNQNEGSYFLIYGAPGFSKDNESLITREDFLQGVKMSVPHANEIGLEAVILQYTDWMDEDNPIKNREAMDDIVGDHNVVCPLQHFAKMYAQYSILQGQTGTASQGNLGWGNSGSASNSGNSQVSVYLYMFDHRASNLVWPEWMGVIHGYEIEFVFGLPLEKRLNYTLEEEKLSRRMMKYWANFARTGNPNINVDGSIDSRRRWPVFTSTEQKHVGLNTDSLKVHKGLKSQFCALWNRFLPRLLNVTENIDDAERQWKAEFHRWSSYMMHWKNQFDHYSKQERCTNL
Sequence of butyrylcholinesterase (BuChE, from equine serum) (P81908 whole entry): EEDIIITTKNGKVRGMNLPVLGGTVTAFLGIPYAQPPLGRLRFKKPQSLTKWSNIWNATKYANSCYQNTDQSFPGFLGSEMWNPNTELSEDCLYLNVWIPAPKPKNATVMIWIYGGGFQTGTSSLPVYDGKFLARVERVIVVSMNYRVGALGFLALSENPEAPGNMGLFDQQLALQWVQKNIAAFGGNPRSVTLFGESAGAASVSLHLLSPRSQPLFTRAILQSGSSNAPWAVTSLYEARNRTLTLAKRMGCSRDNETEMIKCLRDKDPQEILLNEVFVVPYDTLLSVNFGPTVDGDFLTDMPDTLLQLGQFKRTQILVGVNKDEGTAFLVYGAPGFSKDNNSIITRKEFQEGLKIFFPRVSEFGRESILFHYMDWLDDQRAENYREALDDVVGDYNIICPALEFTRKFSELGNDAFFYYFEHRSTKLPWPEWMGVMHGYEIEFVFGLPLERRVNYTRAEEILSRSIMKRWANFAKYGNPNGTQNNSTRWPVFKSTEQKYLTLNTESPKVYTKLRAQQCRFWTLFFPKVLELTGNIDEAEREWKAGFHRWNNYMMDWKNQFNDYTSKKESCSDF

In the case of `COc1ccc2[nH]c3c4c(c(C=O)cc3c2c1)OC(C)(C)C=C4` [Clau F, Claulansine F, reference compound], the inhibition at 100 µM on AChE (from electric eel) came to 28.2 ± 2.11%. For the same compound, in assay [1], the half-inhibitory concentration (IC50) was 64.3 ± 7.52 µM.
As for `CC1(C)C=Cc2c(c(/C=C/C(=O)NC3CCN(Cc4ccccc4)CC3)cc3c2[nH]c2ccc(C(C)(C)C)cc23)O1` [Compound 6aa, (E)-N-(1-Benzylpiperidin-4-yl)-3-(8-(tert-butyl)-3,3-dimethyl-3,11-dihydropyrano[3,2-a]carbazol-5-yl)acrylamide], the concentration for half-maximal inhibition (IC50) against AChE (from electric eel) stood at 51.9 ± 2.24 µM; in assay [1], 22.9 ± 1.14 µM.
For `CC1(C)C=Cc2c(c(/C=C/C(=O)NC3CCN(Cc4ccccc4F)CC3)cc3c2[nH]c2ccc(C(C)(C)C)cc23)O1` [Compound 6ab, (E)-3-(8-(tert-Butyl)-3,3-dimethyl-3,11-dihydropyrano[3,2-a]carbazol-5-yl)-N-(1-(2-fluorobenzyl)piperidin-4-yl)acrylamide], the inhibition at 100 µM on AChE (from electric eel) amounted to 36.16 ± 0.31%. This compound also registered a concentration for half-maximal inhibition (IC50) in assay [1] of 35.9 ± 5.13 µM.
The matching figures for `Cc1ccccc1CN1CCC(NC(=O)/C=C/c2cc3c([nH]c4ccc(C(C)(C)C)cc43)c3c2OC(C)(C)C=C3)CC1` [Compound 6ac, (E)-3-(8-(tert-Butyl)-3,3-dimethyl-3,11-dihydropyrano[3,2-a]carbazol-5-yl)-N-(1-(2-methylbenzyl)piperidin-4-yl)acrylamide]: 50.9 ± 2.76% and 34.3 ± 0.69 µM.
The matching figures for `CC1(C)C=Cc2c(c(/C=C/C(=O)NC3CCN(Cc4ccccc4Cl)CC3)cc3c2[nH]c2ccc(C(C)(C)C)cc23)O1` [Compound 6ad, (E)-3-(8-(tert-Butyl)-3,3-dimethyl-3,11-dihydropyrano[3,2-a]carbazol-5-yl)-N-(1-(2-chlorobenzyl)piperidin-4-yl)acrylamide]: 42.5 ± 6.12% and 38.8 ± 2.48 µM.
Regarding `COc1ccc2[nH]c3c4c(c(/C=C/C(=O)NC5CCN(Cc6ccccc6)CC5)cc3c2c1)OC(C)(C)C=C4` [Compound 6ae, (E)-N-(1-Benzylpiperidin-4-yl)-3-(8-methoxy-3,3-dimethyl-3,11-dihydropyrano[3,2-a]carbazol-5-yl)acrylamide], at AChE (from electric eel), the inhibition at 100 µM was 20.4 ± 7.35%. Moreover, in assay [1], the IC50 was determined as 69.1 ± 8.51 µM.
With `COc1ccc2[nH]c3c4c(c(/C=C/C(=O)NC5CCN(Cc6ccccc6F)CC5)cc3c2c1)OC(C)(C)C=C4` [Compound 6af, (E)-N-(1-(2-Fluorobenzyl)piperidin-4-yl)-3-(8-methoxy-3,3-dimethyl-3,11-dihydropyrano[3,2-a]carbazol-5-yl)acrylamide], the inhibition at 100 µM on AChE (from electric eel) is 34.2 ± 10.7%. The compound further had an IC50 in assay [1] of 24.5 ± 1.94 µM.
As to `COc1ccc2[nH]c3c4c(c(/C=C/C(=O)NC5CCN(Cc6ccccc6C)CC5)cc3c2c1)OC(C)(C)C=C4` [Compound 6ag, (E)-3-(8-Methoxy-3,3-dimethyl-3,11-dihydropyrano[3,2-a]carbazol-5-yl)-N-(1-(2-methylbenzyl)piperidin-4-yl)acrylamide], the inhibition at 100 µM on AChE (from electric eel) amounted to 36.8 ± 1.25%. In assay [1], this compound yielded a 50% inhibitory concentration (IC50) of 26.4 ± 4.51 µM.
Regarding `COc1ccc2[nH]c3c4c(c(/C=C/C(=O)NC5CCN(Cc6ccccc6Cl)CC5)cc3c2c1)OC(C)(C)C=C4` [Compound 6ah, (E)-N-(1-(2-Chlorobenzyl)piperidin-4-yl)-3-(8-methoxy-3,3-dimethyl-3,11-dihydropyrano[3,2-a]carbazol-5-yl)acrylamide], the inhibition at 100 µM at AChE (from electric eel) is 40 ± 1.4%. In assay [1], this compound gave an IC50 of 18 ± 2.27 µM.
Consider `CC1(C)C=Cc2c(c(/C=C/C(=O)NCC3CCN(Cc4ccccc4)CC3)cc3c2[nH]c2ccc(C(C)(C)C)cc23)O1` [Compound 6ba, (E)-N-((1-Benzylpiperidin-4-yl)methyl)-3-(8-(tert-butyl)-3,3-dimethyl-3,11-dihydropyrano[3,2-a]carbazol-5-yl)acrylamide], for which the IC50 at AChE (from electric eel) worked out at 4.62 ± 0.28 µM; in assay [1] it was 12.3 ± 0.66 µM.
